Tested on: mouse long-term hematopoietic stem cells
Assay: Reproducibility and concentration dependence test: 1-week culture of sorted Hoxb5-tri-mCherry mouse long-term hematopoietic stem cells, flow cytometry
Type: cell-based
Conditions: Table 4, day 7 of culture, n=2
Method: Mice with insertion of a nucleic acid sequence containing three copies of a gene encoding the fluorescent protein mCherry to the C terminus of the mouse endogenous HoxB5 gene (Hoxb5-tri-mCherry) were used (triple-mCherry Hoxb5 knock-in mice; Non Patent Literature 1). The mice were housed under environmental conditions such that the room temperature and the humidity were 20 to 26° C. and 40 to 70%, respectively, under light for 12 hours and under dark for 12 hours (illumination: 8:00 a.m. to 8:00 p.m.).
Bone marrow cells were collected from the tibia, femur, humerus, and pelvis in each side of each of the mice, and gathered in a mortar. A buffer obtained by adding thermally deactivated bovine serum (manufactured by Gibco) at a final concentration of 2% and EDTA at a final concentration of 2 mM to Ca^2+-free and Mg^2+-free PBS was added, and the resultant was broken with a pestle to obtain a cell population including hematopoietic stem cells.
First, the thus-obtained cell population including hematopoietic stem cells was passed through strainers (meshes) of 100 μm, 70 μm, and 40 μm. The cell population was stained with an APC-binding anti-c-Kit (2B8) and fractionated with anti-APC magnetic beads and an LS column (both manufactured by Miltenyi Biotec) to obtain a cell population enriched with hematopoietic stem cells and progenitor cells.
Subsequently, cells being c-Kit-positive were stained with antibodies for the following cell surface markers.
Staining with the antibodies was performed at 4° C., and the cells were incubated for 30 minutes. For staining with the CD34 antibody, the cells were incubated for 90 minutes. Dead cell staining was performed with SYTOX Red Dead Cell Stain (manufactured by Life Technologies) in accordance with a method recommended by the manufacturer.
Flow cytometry analysis and cell classification (cell sorting) were performed with a FACS Aria II cell sorter (manufactured by BD Biosciences), wherein Lineage-negative, c-Kit-positive, Sca-1-positive, Flk2-negative, CD34-negative or weakly CD34-positive, CD150-positive, and mCherry-positive fractions were regarded as long-term hematopoietic stem cells, and analysis was performed with the software FlowJo (manufactured by Tree Star, Inc.).
The cells after classification were seeded in a 96-well plate. A cell culture medium was prepared by adding Stem Cell Factor (SCF, manufactured by PeproTech, Inc.) and Thrombopoietin (TPO, manufactured by PeproTech, Inc.) to StemSpan SFEM culture medium (manufactured by […] Technologies Inc.) and added in advance to a cell culture 96-well plate (manufactured by BD Biosciences) at 100 μL/well, and the cells sorted with the FACS Aria II cell sorter (BD Biosciences) were then seeded at 10 cells/well.
[…] Thereafter, the cells were cultured in a CO2 incubator under conditions of 37° C. and 5% CO2 for 1 week.
After culture, the cells were stained with the antibodies for the surface markers c-Kit and Sca-1, Ter-119, B220, CD3, CD4, CD8a, Gr-1, and CD11b, and the ratio and post-growth cell count of a KLS fraction (c-Kit^+, Lin^−, Sca-1^+) or an mCherry-positive fraction given with use of a FACS Aria II cell sorter were analyzed by using FlowJo (BD Biosciences). The mCherry-positive fraction is a cell fraction expressing the Hoxb5 gene, and the KLS fraction is a cell fraction being c-Kit-positive, Lin-negative, and Sca-1-positive, and includes hematopoietic stem cells and multipotent progenitor cells as main components. […]

Row | Compound | KLS-positive rate (compound 0.1 μM) | Viable cell count (compound 0.1 μM) | mCherry-positive rate (compound 0.1 μM) | KLS-positive rate (compound 0.3 μM) | Viable cell count (compound 0.3 μM) | mCherry-positive rate (compound 0.3 μM) | KLS-positive rate (compound 1 μM) | Viable cell count (compound 1 μM) | mCherry-positive rate (compound 1 μM) | KLS-positive rate (compound 3 μM) | Viable cell count (compound 3 μM) | mCherry-positive rate (compound 3 μM) | KLS-positive rate (compound 10 μM) | Viable cell count (compound 10 μM) | mCherry-positive rate (compound 10 μM)
1 | C[C@H]1[C@H](Oc2ccccc2)O[C@@H]2O[C@@]3(C)CC[C@H]4[C@H](C)CC[C@@H]1[C@@]24OO3 [Example 1-25, (3R,5aS,6R,8aS,9R,10R,12R,12aR)-3,6,9-trimethyl-10-phenoxydecahydro-12H-3,12-epoxypyrano[4,3-j][1,2]benzodioxepine] | 40.0% | 181.5 cell | 52.3% | 0.0% | 0.5 cell | 0.0% | 0.0% | 0.0 cell | 0.0% | 50.0% | 0.5 cell | 50.0% | 0.0% | 0.0 cell | 0.0%
2 | CC(=O)O[C@@H]1O[C@@H]2O[C@@]3(C)CC[C@H]4[C@H](C)CC[C@@H]([C@H]1C)[C@@]24OO3 [Example 1-14, (3R,5aS,6R,8aS,9R,10S,12R,12aR)-3,6,9-Trimethyldecahydro-12H-3,12-epoxypyrano[4,3-j][1,2]benzodioxepin-10-yl acetate] | 20.6% | 497.5 cell | 0.2% | 30.1% | 340.0 cell | 9.0% | 47.3% | 119.0 cell | 22.1% | 50.0% | 1.0 cell | 100.0% | 0.0% | 0.5 cell | 0.0%
3 | C[C@H]1[C@H](N(C)C)O[C@@H]2O[C@@]3(C)CC[C@H]4[C@H](C)CC[C@@H]1[C@@]24OO3 [Example 1-12, (3R,5aS,6R,8aS,9R,10R,12R,12aR)—N,N,3,6,9-Pentamethyldecahydro-12H-3,12-epoxypyrano[4,3-j][1,2]benzodioxepin-10-amine] | 27.2% | 450.5 cell | 7.3% | 15.8% | 262.0 cell | 15.2% | 19.3% | 431.5 cell | 8.2% | 14.4% | 217.0 cell | 19.4% | 36.6% | 234.5 cell | 12.1%
4 | C[C@H]1[C@H](C(=O)O)O[C@@H]2O[C@@]3(C)CC[C@H]4[C@H](C)CC[C@@H]1[C@@]24OO3 [Example 1-8, (3R,5aS,6R,8aS,9R,10R,12R,12aR)-3,6,9-Trimethyldecahydro-12H-3,12-epoxypyrano[4,3-j][1,2]benzodioxepine-10-carboxylic acid] | 17.3% | 396.5 cell | 3.0% | 18.2% | 379.5 cell | 7.7% | 28.7% | 248.0 cell | 12.0% | 37.3% | 204.5 cell | 12.9% | 20.6% | 286.5 cell | 29.0%
5 | C[C@H]1[C@@H](OCc2ccccc2)O[C@@H]2O[C@@]3(C)CC[C@H]4[C@H](C)CC[C@@H]1[C@@]24OO3 [Example 1-24, (3R,5aS,6R,8aS,9R,10S,12R,12aR)-10-(benzyloxy)-3,6,9-trimethyldecahydro-12H-3,12-epoxypyrano[4,3-j][1,2]benzodioxepine] | 73.6% | 18.0 cell | 94.1% | 0.0% | 0.5 cell | 50.0% | 0.0% | 0.5 cell | 50.0% | 0.0% | 0.0 cell | 0.0% | 0.0% | 0.5 cell | 0.0%
6 | C[C@H]1[C@@H](OCC(F)(F)F)O[C@@H]2O[C@@]3(C)CC[C@H]4[C@H](C)CC[C@@H]1[C@@]24OO3 [Example 1-22, (3R,5aS,6R,8aS,9R,10S,12R,12aR)-3,6,9-Trimethyl-10-(2,2,2-trifluoroethoxy)decahydro-12H-3,12-epoxypyrano[4,3-j][1,2]benzodioxepine] | 26.7% | 216.0 cell | 90.9% | 87.0% | 12.5 cell | 100.0% | 0.0% | 0.5 cell | 0.0% | 50.0% | 0.5 cell | 50.0% | 0.0% | 0.5 cell | 0.0%
7 | C[C@H]1[C@@H](C(N)=O)O[C@@H]2O[C@@]3(C)CC[C@H]4[C@H](C)CC[C@@H]1[C@@]24OO3 [Example 1-15, (3R,5aS,6R,8aS,9R,10S,12R,12aR)-3,6,9-Trimethyldecahydro-12H-3,12-epoxypyrano[4,3-j][1,2]benzodioxepine-10-carboxamide] | 6.8% | 379.0 cell | 7.1% | 13.0% | 540.0 cell | 13.3% | 17.9% | 258.0 cell | 47.3% | 40.0% | 111.0 cell | 87.1% | 54.9% | 42.5 cell | 97.6%
8 | CC1=CO[C@@H]2O[C@@]3(C)CC[C@H]4[C@H](C)CC[C@@H]1[C@@]24OO3 [Example 1-28, (3R,5aS,6R,8aS,12R,12aR)-3,6,9-trimethyl-3,4,5,5a,6,7,8,8a-octahydro-12H-3,12-epoxypyrano[4,3-j][1,2]benzodioxepine] | 21.5% | 275.5 cell | 12.9% | 13.5% | 305.0 cell | 15.0% | 10.5% | 522.0 cell | 35.5% | 16.5% | 283.0 cell | 80.3% | 41.2% | 138.0 cell | 96.4%
9 | C[C@H]1[C@@H](CN)O[C@@H]2O[C@@]3(C)CC[C@H]4[C@H](C)CC[C@@H]1[C@@]24OO3 [Example 1-17, 1-[(3R,5aS,6R,8aS,9R,10S,12R,12aR)-3,6,9-Trimethyldecahydro-12H-3,12-epoxypyrano[4,3-j][1,2]benzodioxepin-10-yl]methanamine] | 15.9% | 947.0 cell | 4.9% | 16.1% | 902.0 cell | 2.5% | 19.4% | 641.5 cell | 16.1% | 24.0% | 315.0 cell | 70.1% | 51.8% | 80.0 cell | 100.0%

— patent US20230094952A1, “Method for Culturing Hematopoietic Stem Cells” (Sumitomo Pharma Co., Ltd., priority 2019, published 2023)
